Article PMC3702004, “Comparison of Intake and Systemic Relative Effect Potencies of Dioxin-like Compounds in Female Mice after a Single Oral Dose” (Environmental Health Perspectives, 2013)

Experiments:
[1] = Compound analysis: liver, adipose and plasma concentrations 3 days after a single oral dose; type: in vivo, female C57BL/6 mice; settings: for liver:adipose ratio (hepatic sequestration criterion 0.3) / Adipose % dose / g tissue / Liver % dose / g tissue / Plasma % dose / g tissue: 3 days after single oral dose; for liver:adipose ratio (hepatic sequestration criterion 0.3): Table 1 doses; for Liver:adipose ratio: based on ng/g tissue, day 3
Method: (§1) Animals. Eight-week-old female C57BL/6 mice (Harlan laboratories, Venray, the Netherlands) were randomly assigned to treatment groups (six animals per group) and allowed to acclimate for 1.5 weeks. The animals were housed in groups in standard cages and conditions (23 ± 2°C, 50–60% relative humidity, 12-hr dark/light cycle) with free access to food and water. Mice received a single dose of test compound by oral gavage at a dosing volume of 10 mL/kg body weight (BW). Mice treated with corn oil vehicle (10 mL/kg BW) served as controls. For each congener, five different doses were administered, ranging from 0.5–100 μg/kg BW (TCDD) to 5,000–500,000 µg/kg BW (PCB-153). Detailed information on doses is provided in Supplemental Material, Table S1 (http://dx.doi.org/10.1289/ehp.1206336). On day 3 after dosing, animals were euthanized by CO2/O2 asphyxiation, and blood was immediately collected from the abdominal aorta. The liver, thymus, spleen, and adipose tissue were removed, weighed (liver, thymus, and spleen), snap frozen, and stored at –80°C. All animal treatments were performed with permission of the Animal Ethical Committee (DEC Utrecht) and performed according to the [Law on Animal Experiments (1977)]. Animals were treated humanely and with regard for alleviation of suffering.
(§2) Compound analysis. Adipose and liver tissues samples were homogenized in Na2SO4, followed by extraction and clean-up in one step, and then eluted with 200 mL 1:1 hexane:dichloromethane on an open column packed with 40% wt/wt H2SO4-impregnated silica and KOH-silica. Blood plasma samples were extracted on an open column using Chem-Elut (Agilent Technologies, Santa Clara, CA, USA) and then NaCl eluted with 75 mL 3:2 hexane:2-propanol. Clean-up was performed using a miniaturized silica column (as described above), and samples were eluted using 30 mL hexane. Because the samples typically contained high levels of the analytes, only a small fraction was evaporated and analyzed. Prior to evaporation, we spiked a fraction of the samples with ^13C-labeled standards. We checked potential loss of analytes during extraction and clean-up by reextracting the samples using the identical protocol used for the samples. […] Tetradecane was added prior to evaporation. Sample analysis followed the U.S. Environmental Protection Agency Method 1613 ([U.S. Environmental Protection Agency 1994]) using single ion monitoring mode on an Agilent 6809N gas chromatograph (Agilent Technologies) coupled with a Micromass Ultima Autospec Ultra high-resolution mass spectrometer (HRMS; Waters Corp., Milford, MA, USA). Compounds were separated on a 60 m × 0.25 mm DB5-MS column ([…]; J&W Scientific, Folsom, CA, USA). The HRMS was operated with electron impact ionization with electron energy of 35 eV and an ion source temperature of 250°C. To reduce the number of analyses, samples were pooled before clean-up. […] This method was used because full congener–specific separation could be achieved on the high-resolution GC–HRMS. For lipid determination, samples were evaporated to dryness after the extraction step, and the amount of lipids was determined gravimetrically. Concentrations were calculated based on lipid weight and wet weight. The analysis of samples for the PCB-118 5,000 μg/kg BW dose failed during the procedure; thus analysis for this group could not be completed.
Plasma and PBL isolation. Blood from two mice was pooled (total volume of approximately 1.4 mL); plasma and PBLs were then isolated using Ficoll Paque gradient (GE Healthcare Europe, Diegem, Belgium). Plasma samples were stored at –80°C until compound analysis. Isolated lymphocytes were lysed with RLT buffer (QIAGEN, Venlo, the Netherlands) as described in the QIAGEN RNAeasy kit protocol and stored at –80°C until use.

[2] = Body and organ weight, hepatic lipid content; type: in vivo, female C57BL/6 mice; settings: day 3; for % lipid / g liver: pooled liver samples; for Dose with significant increase in liver weight vs vehicle controls: single oral dose
Method: as §1, §2
Statistical analysis. Statistical significant differences of the means and variances were determined using one-way analysis of variance (ANOVA) followed by Tukey-Kramer multiple comparisons. Differences were considered statistically significant at p < 0.05. Statistical calculations were performed using GraphPad 6.01 (GraphPad Software Inc.).

Clc1ccc(-c2cc(Cl)c(Cl)cc2Cl)cc1Cl [PCB-118, 2,3´,4,4´,5-pentachlorobiphenyl]
liver:adipose ratio (hepatic sequestration criterion 0.3) [1]: < 0.3 | Liver:adipose ratio ([1]; dose 15,000 μg/kg BW): 0.08±0.01 | Liver:adipose ratio ([1]; dose 50,000 μg/kg BW): 0.07±0.02 | Adipose % dose / g tissue ([1]; oral dose 15000 µg/kg bw): 32 % dose / g tissue | Liver % dose / g tissue ([1]; oral dose 15000 µg/kg bw): 2.6 % dose / g tissue | Plasma % dose / g tissue ([1]; oral dose 15000 µg/kg bw): 0.054 % dose / g tissue | Adipose % dose / g tissue ([1]; oral dose 50000 µg/kg bw): 33 % dose / g tissue | Liver % dose / g tissue ([1]; oral dose 50000 µg/kg bw): 2.2 % dose / g tissue | Plasma % dose / g tissue ([1]; oral dose 50000 µg/kg bw): 0.067 % dose / g tissue | Liver % dose / g tissue ([1]; oral dose 150000 µg/kg bw): 2.2 % dose / g tissue | Plasma % dose / g tissue ([1]; oral dose 150000 µg/kg bw): 0.062 % dose / g tissue | Plasma % dose / g tissue ([1]; oral dose 500000 µg/kg bw): 0.05 % dose / g tissue | Body weight ([2]; oral dose 5000 µg/kg bw): 18.3 ± 0.9 gram | Liver weight ([2]; oral dose 5000 µg/kg bw): 5.04 ± 0.22 % of bw | Spleen weight ([2]; oral dose 5000 µg/kg bw): 0.32 ± 0.03 % of bw | Thymus weight ([2]; oral dose 5000 µg/kg bw): 0.27 ± 0.03 % of bw | % lipid / g liver ([2]; oral dose 5000 µg/kg bw): 2.7% | Body weight ([2]; oral dose 15000 µg/kg bw): 18.3 ± 0.8 gram | Liver weight ([2]; oral dose 15000 µg/kg bw): 5.06 ± 0.22 % of bw | Spleen weight ([2]; oral dose 15000 µg/kg bw): 0.33 ± 0.05 % of bw | Thymus weight ([2]; oral dose 15000 µg/kg bw): 0.23 ± 0.04 % of bw | % lipid / g liver ([2]; oral dose 15000 µg/kg bw): 3.3% | Body weight ([2]; oral dose 50000 µg/kg bw): 18.0 ± 1.8 gram | Liver weight ([2]; oral dose 50000 µg/kg bw): 4.87 ± 0.41 % of bw | Spleen weight ([2]; oral dose 50000 µg/kg bw): 0.30 ± 0.03 % of bw | Thymus weight ([2]; oral dose 50000 µg/kg bw): 0.20 ± 0.05 % of bw | % lipid / g liver ([2]; oral dose 50000 µg/kg bw): 3.5% | Body weight ([2]; oral dose 150000 µg/kg bw): 19.2 ± 0.8 gram | Liver weight ([2]; oral dose 150000 µg/kg bw): 6.14 ± 0.45 % of bw | Spleen weight ([2]; oral dose 150000 µg/kg bw): 0.34 ± 0.04 % of bw | Thymus weight ([2]; oral dose 150000 µg/kg bw): 0.21 ± 0.05 % of bw | % lipid / g liver ([2]; oral dose 150000 µg/kg bw): 4.6% | Body weight ([2]; oral dose 500000 µg/kg bw): 19.1 ± 1.0 gram | Liver weight ([2]; oral dose 500000 µg/kg bw): 7.23 ± 0.29 % of bw | Spleen weight ([2]; oral dose 500000 µg/kg bw): 0.31 ± 0.03 % of bw | Thymus weight ([2]; oral dose 500000 µg/kg bw): 0.23 ± 0.04 % of bw | Dose with significant increase in liver weight vs vehicle controls [2]: ≥ 150,000 µg/kg BW

Clc1ccc(-c2cc(Cl)c(Cl)c(Cl)c2)cc1Cl [PCB-126, 3,3´,4,4´,5-pentachlorobiphenyl]
liver:adipose ratio (hepatic sequestration criterion 0.3) [1]: > 0.3 | Liver:adipose ratio ([1]; dose 5 μg/kg BW): 3.2±0.3 | Liver:adipose ratio ([1]; dose 25 μg/kg BW): 5.9±0.9 | Liver:adipose ratio ([1]; dose 100 μg/kg BW): 9.1±0.9 | Adipose % dose / g tissue ([1]; oral dose 5 µg/kg bw): 12 % dose / g tissue | Liver % dose / g tissue ([1]; oral dose 5 µg/kg bw): 38 % dose / g tissue | Plasma % dose / g tissue ([1]; oral dose 5 µg/kg bw): 0.035 % dose / g tissue | Adipose % dose / g tissue ([1]; oral dose 25 µg/kg bw): 11 % dose / g tissue | Liver % dose / g tissue ([1]; oral dose 25 µg/kg bw): 65 % dose / g tissue | Plasma % dose / g tissue ([1]; oral dose 25 µg/kg bw): 0.018 % dose / g tissue | Adipose % dose / g tissue ([1]; oral dose 100 µg/kg bw): 5.5 % dose / g tissue | Liver % dose / g tissue ([1]; oral dose 100 µg/kg bw): 51 % dose / g tissue | Plasma % dose / g tissue ([1]; oral dose 100 µg/kg bw): 0.012 % dose / g tissue | Plasma % dose / g tissue ([1]; oral dose 250 µg/kg bw): 0.013 % dose / g tissue | Plasma % dose / g tissue ([1]; oral dose 1000 µg/kg bw): 0.014 % dose / g tissue | Body weight ([2]; oral dose 5 µg/kg bw): 19.3 ± 0.9 gram | Liver weight ([2]; oral dose 5 µg/kg bw): 4.97 ± 0.38 % of bw | Spleen weight ([2]; oral dose 5 µg/kg bw): 0.33 ± 0.04 % of bw | Thymus weight ([2]; oral dose 5 µg/kg bw): 0.27 ± 0.06 % of bw | % lipid / g liver ([2]; oral dose 5 µg/kg bw): 3.4% | Body weight ([2]; oral dose 25 µg/kg bw): 18.9 ± 1.4 gram | Liver weight ([2]; oral dose 25 µg/kg bw): 4.96 ± 0.35 % of bw | Spleen weight ([2]; oral dose 25 µg/kg bw): 0.33 ± 0.06 % of bw | Thymus weight ([2]; oral dose 25 µg/kg bw): 0.29 ± 0.05 % of bw | % lipid / g liver ([2]; oral dose 25 µg/kg bw): 3.7% | Body weight ([2]; oral dose 100 µg/kg bw): 19.5 ± 0.7 gram | Liver weight ([2]; oral dose 100 µg/kg bw): 5.07 ± 0.19 % of bw | Spleen weight ([2]; oral dose 100 µg/kg bw): 0.31 ± 0.04 % of bw | Thymus weight ([2]; oral dose 100 µg/kg bw): 0.25 ± 0.06 % of bw | % lipid / g liver ([2]; oral dose 100 µg/kg bw): 4.4% | Body weight ([2]; oral dose 250 µg/kg bw): 19.3 ± 1.3 gram | Liver weight ([2]; oral dose 250 µg/kg bw): 5.43 ± 0.19 % of bw | Spleen weight ([2]; oral dose 250 µg/kg bw): 0.32 ± 0.02 % of bw | Thymus weight ([2]; oral dose 250 µg/kg bw): 0.26 ± 0.04 % of bw | Body weight ([2]; oral dose 1000 µg/kg bw): 18.8 ± 0.9 gram | Liver weight ([2]; oral dose 1000 µg/kg bw): 5.64 ± 0.20 % of bw | Spleen weight ([2]; oral dose 1000 µg/kg bw): 0.39 ± 0.16 % of bw | Thymus weight ([2]; oral dose 1000 µg/kg bw): 0.27 ± 0.04 % of bw | Dose with significant increase in liver weight vs vehicle controls [2]: ≥ 1,000 µg/kg BW
